Test results: article PMC3509773 (The botulinum journal, 2011)

What was measured:
Assay type in all cases: biochemical
BoNT/B LC = BoNT/B LC (Clostridium botulinum, UniProt P10844); conditions: read-out: IC50 BoNT/B LC FRET
BaLF = BaLF (Bacillus anthracis, UniProt P15917); conditions: read-out: IC50 BaLF FRET
MMP-1 = MMP-1 (Homo sapiens, UniProt P03956); conditions: read-out: IC50 MMP-1 (FRET assay)
MMP-2 = MMP-2 (Homo sapiens, UniProt P08253); conditions: read-out: IC50 MMP-2 (FRET assay)
MMP-9 = MMP-9 (Homo sapiens, UniProt P14780); conditions: read-out: IC50 MMP-9 (FRET assay)
Chain of MMP-9 (P14780 94-707): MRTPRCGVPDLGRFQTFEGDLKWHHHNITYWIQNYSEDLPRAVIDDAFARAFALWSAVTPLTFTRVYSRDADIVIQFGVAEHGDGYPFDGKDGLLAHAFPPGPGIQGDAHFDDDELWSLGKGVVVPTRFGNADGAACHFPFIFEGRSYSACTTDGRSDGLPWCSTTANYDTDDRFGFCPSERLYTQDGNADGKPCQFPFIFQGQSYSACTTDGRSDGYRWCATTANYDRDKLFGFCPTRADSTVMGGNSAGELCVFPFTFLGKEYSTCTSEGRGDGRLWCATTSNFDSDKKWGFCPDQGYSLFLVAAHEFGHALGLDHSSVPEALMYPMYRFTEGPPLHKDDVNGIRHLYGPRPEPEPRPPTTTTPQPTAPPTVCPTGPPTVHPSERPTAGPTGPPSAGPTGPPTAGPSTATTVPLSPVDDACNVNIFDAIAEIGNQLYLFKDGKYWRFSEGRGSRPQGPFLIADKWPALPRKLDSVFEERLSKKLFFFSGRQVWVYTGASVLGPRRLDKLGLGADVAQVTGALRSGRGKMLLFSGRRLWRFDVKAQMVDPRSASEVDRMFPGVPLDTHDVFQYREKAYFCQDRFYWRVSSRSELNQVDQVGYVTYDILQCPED

BoNT/A LC = BoNT/A LC (Clostridium botulinum, UniProt P0DPI0)
Chain of BoNT/A LC (P0DPI0 2-448 limits assumed): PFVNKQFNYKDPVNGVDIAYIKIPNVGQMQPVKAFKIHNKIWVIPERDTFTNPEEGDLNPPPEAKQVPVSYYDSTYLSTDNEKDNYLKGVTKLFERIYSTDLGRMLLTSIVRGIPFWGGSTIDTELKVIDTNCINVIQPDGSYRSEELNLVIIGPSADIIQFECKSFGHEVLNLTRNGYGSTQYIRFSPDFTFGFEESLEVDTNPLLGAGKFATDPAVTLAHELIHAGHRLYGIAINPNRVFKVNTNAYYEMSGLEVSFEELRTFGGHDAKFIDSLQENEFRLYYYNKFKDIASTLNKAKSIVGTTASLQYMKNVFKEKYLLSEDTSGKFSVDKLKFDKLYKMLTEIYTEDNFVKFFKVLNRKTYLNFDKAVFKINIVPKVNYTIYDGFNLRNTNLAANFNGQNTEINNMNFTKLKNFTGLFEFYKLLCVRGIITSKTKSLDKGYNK

Chain of MMP-2 (P08253 110-660): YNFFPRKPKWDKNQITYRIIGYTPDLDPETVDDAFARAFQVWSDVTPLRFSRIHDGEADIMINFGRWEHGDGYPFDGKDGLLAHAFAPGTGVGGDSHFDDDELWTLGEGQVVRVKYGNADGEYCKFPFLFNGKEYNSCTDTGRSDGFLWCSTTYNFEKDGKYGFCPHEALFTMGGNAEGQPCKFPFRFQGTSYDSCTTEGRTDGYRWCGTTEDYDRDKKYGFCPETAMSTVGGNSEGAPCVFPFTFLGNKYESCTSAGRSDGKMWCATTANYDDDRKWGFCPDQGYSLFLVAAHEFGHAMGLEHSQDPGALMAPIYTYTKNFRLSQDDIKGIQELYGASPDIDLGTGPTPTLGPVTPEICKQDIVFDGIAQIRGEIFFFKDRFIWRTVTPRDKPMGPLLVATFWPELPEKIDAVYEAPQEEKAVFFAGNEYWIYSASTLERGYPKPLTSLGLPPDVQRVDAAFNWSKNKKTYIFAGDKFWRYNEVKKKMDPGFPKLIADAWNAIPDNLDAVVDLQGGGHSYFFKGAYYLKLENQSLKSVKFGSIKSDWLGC
Chain of BoNT/B LC (P10844 2-441 limits assumed): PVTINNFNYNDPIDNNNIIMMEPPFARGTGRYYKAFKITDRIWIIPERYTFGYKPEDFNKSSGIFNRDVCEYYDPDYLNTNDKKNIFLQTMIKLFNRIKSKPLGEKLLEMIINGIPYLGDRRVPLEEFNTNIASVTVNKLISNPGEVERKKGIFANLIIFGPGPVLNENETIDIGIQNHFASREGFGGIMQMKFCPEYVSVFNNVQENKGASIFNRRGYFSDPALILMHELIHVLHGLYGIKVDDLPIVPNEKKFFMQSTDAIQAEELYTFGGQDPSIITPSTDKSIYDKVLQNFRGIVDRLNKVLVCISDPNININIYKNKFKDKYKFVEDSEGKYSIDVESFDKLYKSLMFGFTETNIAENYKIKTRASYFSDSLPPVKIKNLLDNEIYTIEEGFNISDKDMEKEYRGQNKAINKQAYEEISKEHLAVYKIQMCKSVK
Chain of BaLF (P15917 34-809 limits assumed): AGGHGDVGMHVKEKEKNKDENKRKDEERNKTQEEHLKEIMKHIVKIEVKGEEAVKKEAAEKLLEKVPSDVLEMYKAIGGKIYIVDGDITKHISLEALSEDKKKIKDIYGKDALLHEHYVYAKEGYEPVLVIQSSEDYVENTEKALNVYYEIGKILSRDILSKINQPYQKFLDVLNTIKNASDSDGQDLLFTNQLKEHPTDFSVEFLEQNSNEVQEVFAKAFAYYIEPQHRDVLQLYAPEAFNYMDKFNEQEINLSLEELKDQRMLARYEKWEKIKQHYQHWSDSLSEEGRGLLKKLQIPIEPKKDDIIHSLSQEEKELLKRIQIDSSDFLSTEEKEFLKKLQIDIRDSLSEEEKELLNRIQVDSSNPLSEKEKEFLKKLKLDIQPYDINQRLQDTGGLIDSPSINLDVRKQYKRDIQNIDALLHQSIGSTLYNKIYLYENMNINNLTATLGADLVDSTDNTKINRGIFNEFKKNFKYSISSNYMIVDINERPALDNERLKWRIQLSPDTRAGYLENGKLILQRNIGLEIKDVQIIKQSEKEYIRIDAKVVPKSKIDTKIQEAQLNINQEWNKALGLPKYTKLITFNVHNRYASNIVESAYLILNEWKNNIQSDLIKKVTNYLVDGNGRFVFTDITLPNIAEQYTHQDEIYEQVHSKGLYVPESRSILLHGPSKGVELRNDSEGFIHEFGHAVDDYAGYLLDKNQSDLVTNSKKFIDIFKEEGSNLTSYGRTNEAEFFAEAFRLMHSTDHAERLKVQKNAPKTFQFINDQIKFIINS
Chain of MMP-1 (P03956 100-469): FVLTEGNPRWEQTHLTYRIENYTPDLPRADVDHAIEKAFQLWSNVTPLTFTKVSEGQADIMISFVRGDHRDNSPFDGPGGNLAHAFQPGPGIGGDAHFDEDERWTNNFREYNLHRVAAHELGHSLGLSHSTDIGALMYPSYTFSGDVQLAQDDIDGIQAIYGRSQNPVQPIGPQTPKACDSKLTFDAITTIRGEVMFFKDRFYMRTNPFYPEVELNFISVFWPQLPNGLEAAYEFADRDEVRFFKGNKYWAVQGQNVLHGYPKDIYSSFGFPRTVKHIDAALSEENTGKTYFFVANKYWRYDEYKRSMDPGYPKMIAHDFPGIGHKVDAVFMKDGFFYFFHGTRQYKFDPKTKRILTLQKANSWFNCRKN

| Compound | IC50 (BoNT/B LC) [µM] | IC50 (BaLF) [µM] | IC50 (MMP-1) [µM] | IC50 (MMP-2) [µM] | IC50 (MMP-9) [µM] | inhibition of BoNT/A LC activity (BoNT/A LC) |
| --- | --- | --- | --- | --- | --- | --- |
| O=C(C=Cc1ccc(Cl)cc1Cl)NO [Hydroxamate, N-Hydroxy-2,4-dichlorocinnanamide] | > 100 | > 100 | > 100 | > 100 | > 100 |  |
| [Cl-].[Cl-].[Zn+2] [zinc chloride] |  |  |  |  |  | 4–5% |
